pEC50, pIC50: −log10 of the molar value. Values joined by “and” are separate entries in the source; they are usually repeats but may differ in a detail not shown here. Identical values can stand only once. “Also recorded” adds a separate entry of the source.
Target: T1, Human recombinant HDAC6 (Homo sapiens, UniProt Q9UBN7)
T1 sequence (Q9UBN7 1-1215): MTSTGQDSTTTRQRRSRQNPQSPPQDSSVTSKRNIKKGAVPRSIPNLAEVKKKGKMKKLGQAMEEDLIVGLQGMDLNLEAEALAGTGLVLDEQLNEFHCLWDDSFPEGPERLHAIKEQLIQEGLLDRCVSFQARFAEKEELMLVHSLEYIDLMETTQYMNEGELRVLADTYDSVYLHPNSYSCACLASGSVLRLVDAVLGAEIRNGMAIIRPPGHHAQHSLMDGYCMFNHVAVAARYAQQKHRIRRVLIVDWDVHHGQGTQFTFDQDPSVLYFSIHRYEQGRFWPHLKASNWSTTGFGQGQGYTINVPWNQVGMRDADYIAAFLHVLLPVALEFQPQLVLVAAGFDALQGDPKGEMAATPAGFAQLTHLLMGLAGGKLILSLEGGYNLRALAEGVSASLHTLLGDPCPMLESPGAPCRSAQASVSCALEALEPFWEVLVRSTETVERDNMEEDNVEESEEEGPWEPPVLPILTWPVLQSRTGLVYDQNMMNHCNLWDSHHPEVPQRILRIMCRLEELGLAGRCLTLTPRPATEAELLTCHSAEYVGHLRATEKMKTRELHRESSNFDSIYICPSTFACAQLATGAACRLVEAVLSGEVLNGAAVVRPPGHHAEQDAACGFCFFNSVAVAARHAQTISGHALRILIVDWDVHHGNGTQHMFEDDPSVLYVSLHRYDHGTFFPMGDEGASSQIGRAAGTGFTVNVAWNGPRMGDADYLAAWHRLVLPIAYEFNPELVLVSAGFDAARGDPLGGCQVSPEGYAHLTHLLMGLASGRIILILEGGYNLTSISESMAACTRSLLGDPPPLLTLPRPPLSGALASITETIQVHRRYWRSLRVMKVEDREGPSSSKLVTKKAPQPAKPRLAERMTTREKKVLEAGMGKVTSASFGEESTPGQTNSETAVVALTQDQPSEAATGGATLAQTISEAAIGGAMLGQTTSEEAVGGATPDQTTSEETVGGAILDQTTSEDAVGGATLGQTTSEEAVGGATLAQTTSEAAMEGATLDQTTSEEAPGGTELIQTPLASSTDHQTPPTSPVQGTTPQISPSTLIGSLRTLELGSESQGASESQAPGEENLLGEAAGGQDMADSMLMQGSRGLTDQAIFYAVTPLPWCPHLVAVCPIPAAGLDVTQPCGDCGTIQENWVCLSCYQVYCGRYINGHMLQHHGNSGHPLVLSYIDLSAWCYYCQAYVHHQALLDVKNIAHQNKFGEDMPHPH
Experiment: HDAC isomer assay, Fluor-de-Lys, HDAC6
Type: biochemical
Details: for pEC50: Example 4, FIGS. 5, 6 and 8, read-out: EC50 against HDAC6; for greater potency for HDAC6 as compared to HDAC1: FIG. 14; for selectivity for HDAC6 as compared to pan-HDACs (and HDAC1, HDAC3), in words: FIGS. 1, 7, 8, 18
Procedure: The HDAC isomer (HDAC1, 3, and 6) assays were performed as follows:
Materials: Human recombinant HDAC isomer (HDAC1, HDAC3, and HDAC6); Fluor-de-Lys HDAC substrates; 360 nm excitation 460 nm emission Plate Reader; Disposable pipettes; Pipet-aid; Pipette tips; Micro-pipetter; DMSO; Sterile micro-tubes and conical tubes; and Micro-centrifuge.
Test compounds and control preparation: All test compounds' stock solutions were made in 100% DMSO. Test compound dilutions were made in HDAC Assay buffer with a final concentration of DMSO less than or equal to 1%. Vehicle control was HDAC Assay buffer with 1% DMSO.
The reagents for the assay were prepared as follows:
1. All kit components were defrosted and these, and all dilutions described below, were kept on ice until use.
2. A sufficient amount of HDAC source diluted in Assay Buffer (BML-KI143) was prepared to provide for the assays that were performed (# of wells×15 μl). A 30-fold dilution of the HeLa Extract means that 15p L contains 0.5 μl of the undiluted Extract, an appropriate amount to use per well.
3. Dilution(s) of SAHA and/or Test Inhibitors were prepared in Assay Buffer (BML-KI143). Since 10 μl were used per well, and since the final volume of the HDAC reaction was 50p, these inhibitor dilutions were 5× their final concentration.
4. Dilution(s) of the Fluor de Lys® Substrate (BML-KI104; 50 mM) were prepared in Assay Buffer (BML-KI143) that were 2× the desired final concentration(s). For inhibitor screening, substrate concentrations at or below the Km are recommended. Twenty-five μL were used per well. […] Rapid mixing and dilution into room temperature buffer helped to prevent precipitation at high substrate concentration.
5. Shortly before use (<30 min.), sufficient Fluor de Lys® Developer was prepared for the assays to be performed (50 μl per well). First, the Fluor de Lys® Developer Concentrate was diluted 20-fold (e.g. 50 μl plus 950 μl Assay Buffer) in cold Assay Buffer (BML-K1143). […] The addition of SAHA to the Developer insures that HDAC activity stops when the Developer is added. The Developer was kept on ice until use.
1. Assay buffer, diluted trichostatin A or test inhibitor was added to appropriate wells of the microtiter plate.
2. Diluted HeLa extract or other HDAC sample was added to all wells except those that are to be “No Enzyme Controls.”
3. Diluted Fluor de Lys® Substrate and the samples in the microtiter plate were allowed to equilibrate to assay temperature (e.g. 25 or 37° C.).
4. HDAC reactions were initiated by adding diluted substrate (25 μl) to each well and mixing thoroughly.
5. HDAC reactions were allowed to proceed for desired length of time and then stop them by addition of Fluor de Lys® Developer (50 μl). The plates were incubated at room temperature (25° C.) for 10-15 min.
6. Samples were read in a microtiter-plate reading fluorimeter capable of excitation at a wavelength in the range 350-380 nm and detection of emitted light in the range 440-460 nm.

O=C(CCCCCCC(=O)NC1CCC(=O)NC1=O)NO (stereo not shown) [SP-2-59, N^1-(2,6-dioxopiperidin-3-yl)-N^8-hydroxyoctanediamide]
pEC50: 7.28 and 7.17
greater potency for HDAC6 as compared to HDAC1: 83 fold
selectivity for HDAC6 as compared to pan-HDACs (and HDAC1, HDAC3), in words: substantial preference and selectivity for HDAC6

O=C(CCCCCCC(=O)Nc1cccc2c1CN(C1CCC(=O)NC1=O)C2=O)NO (stereo not shown) [SP-2-93, N^1-(2-(2,6-dioxopiperidin-3-yl)-1-oxoisoindolin-4-yl)-N^8-hydroxyoctanediamide]
pEC50: 8.21
more selective for HDAC6 as compared to HDAC1 (Example 6, FIG. 18): about 26 times
more selective for HDAC6 as compared to HDAC3 (Example 6, FIG. 18): about 51 times
pIC50 (Example 6, FIG. 18, 2 mg/mL formulation in 5% DMSO/40% PEG 400/55% PBS, read-out: IC50 against HDAC6 protein): 7.22
greater potency for HDAC6 as compared to HDAC1: 258 fold
selectivity for HDAC6 as compared to pan-HDACs (and HDAC1, HDAC3), in words: substantial preference and selectivity for HDAC6; also recorded: highly selective for HDAC 6
selectivity for HDAC6 as compared to pan-HDACs (and HDAC1, HDAC3), in words (listed as N^1-(2-(2,6-dioxopiperidin-3-yl)-1-oxoisoindolin-4-yl)-N^8-hydroxyoctanediamide): surprising selective for HDAC6

Reference: US11584733B2, “Selective histone deacetylase inhibitors for the treatment of human disease” (Shuttle Pharmaceuticals, Inc., priority 2017, dated 2023)
